Measured values: US7074789B2, “Kinase inhibitors” (Amgen Inc., priority 1999, dated 2006)

Legend:
Format in all cases: biochemical
Hck-1 = molecular target: T1, Hck-1 (Homo sapiens, UniProt P08631); experiment: Kinase inhibition assay (33P transfer), Hck; details: Table 6, Hck-1 kinase inhibition class
T1 construct: Kinases are expressed as either kinase domains or full length constructs; made in house

PDGFRB = molecular target: T2, PDGFRB (Homo sapiens, UniProt P09619); experiment: Kinase inhibition assay (33P transfer), PDGFRB; details: read-out: PDGFRB-1
T2 construct: Kinases are expressed as either kinase domains or full length constructs; made in house

Itk = molecular target: T3, Itk (Homo sapiens, UniProt Q08881); experiment: Kinase inhibition assay (33P transfer), Itk; details: Table 3; for IC50: read-out: Itk-1
T3 construct: Kinases are expressed as either kinase domains or full length constructs; made in house
T3 sequence (Q08881 1-620): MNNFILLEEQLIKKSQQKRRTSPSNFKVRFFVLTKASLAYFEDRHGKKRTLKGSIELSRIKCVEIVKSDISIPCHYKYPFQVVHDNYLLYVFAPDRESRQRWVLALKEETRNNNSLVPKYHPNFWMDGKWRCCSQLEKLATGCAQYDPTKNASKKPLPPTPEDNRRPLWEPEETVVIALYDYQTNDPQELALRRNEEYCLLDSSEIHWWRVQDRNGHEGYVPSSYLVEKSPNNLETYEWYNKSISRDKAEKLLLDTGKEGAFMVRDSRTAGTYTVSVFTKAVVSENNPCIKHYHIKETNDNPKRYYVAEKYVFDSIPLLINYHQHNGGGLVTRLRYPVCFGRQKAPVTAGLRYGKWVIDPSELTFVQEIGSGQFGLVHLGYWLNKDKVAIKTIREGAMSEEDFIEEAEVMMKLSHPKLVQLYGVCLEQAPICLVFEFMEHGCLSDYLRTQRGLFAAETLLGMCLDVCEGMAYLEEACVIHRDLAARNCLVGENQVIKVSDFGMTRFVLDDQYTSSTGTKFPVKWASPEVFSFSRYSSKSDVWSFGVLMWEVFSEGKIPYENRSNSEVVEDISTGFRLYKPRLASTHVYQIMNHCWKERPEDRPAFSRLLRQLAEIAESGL
Method in brief: (§1)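 Kinase domains or full-length enzymes, GST- or polyHis-tagged, were expressed in E. coli or baculovirus High Five cells and affinity-purified. Transfer of 33PO4 from ATP onto plate-bound poly(Glu,Tyr) 4:1 or poly(Arg,Ser) 3:1 was counted by liquid scintillation after a 0.5% phosphoric acid wash. IC50 = concentration halving incorporation.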

Zap-70 = molecular target: T4, Zap-70 (Homo sapiens, UniProt P43403); experiment: Kinase inhibition assay (33P transfer), Zap-70; details: Table 3; for IC50: read-out: Zap-1
T4 construct: Kinases are expressed as either kinase domains or full length constructs; made in house
T4 sequence (P43403 1-619): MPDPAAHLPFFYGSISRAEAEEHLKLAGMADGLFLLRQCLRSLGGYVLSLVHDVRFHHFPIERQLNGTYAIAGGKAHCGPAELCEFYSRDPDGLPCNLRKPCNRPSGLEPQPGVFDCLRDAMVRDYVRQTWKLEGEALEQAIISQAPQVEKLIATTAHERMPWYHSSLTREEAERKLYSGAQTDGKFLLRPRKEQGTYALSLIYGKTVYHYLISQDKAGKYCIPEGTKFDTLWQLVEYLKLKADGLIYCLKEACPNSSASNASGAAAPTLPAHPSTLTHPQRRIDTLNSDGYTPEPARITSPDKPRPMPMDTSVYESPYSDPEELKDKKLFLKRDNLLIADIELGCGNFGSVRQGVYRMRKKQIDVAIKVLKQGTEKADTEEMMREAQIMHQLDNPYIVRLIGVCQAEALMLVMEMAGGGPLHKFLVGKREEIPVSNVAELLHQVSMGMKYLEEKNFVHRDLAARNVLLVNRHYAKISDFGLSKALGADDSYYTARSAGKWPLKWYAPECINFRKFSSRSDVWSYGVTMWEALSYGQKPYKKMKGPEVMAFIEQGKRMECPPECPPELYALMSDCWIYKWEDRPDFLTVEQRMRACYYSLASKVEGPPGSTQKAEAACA
Method in brief: (§2)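 Measured by scintillation: radiolabelled phosphate added by tagged recombinant kinases to poly(Glu,Tyr) 4:1 or poly(Arg,Ser) 3:1 attached to microtiter wells, counted once free label was washed away with 0.5% phosphoric acid.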

Kdr = molecular target: T5, Kdr (Homo sapiens, UniProt P35968); experiment: Kinase inhibition assay (33P transfer), Kdr; details: Table 3; for IC50: read-out: KDR-1
T5 construct: Kinases are expressed as either kinase domains or full length constructs; made in house
Method in brief: as §2

Src = molecular target: T6, Src (Homo sapiens, UniProt P12931); experiment: Kinase inhibition assay (33P transfer), Src; details: Table 6, Src-1 kinase inhibition class
T6 construct: Kinases are expressed as either kinase domains or full length constructs; made in house
Method in brief: as §1

ErbB2 = molecular target: T7, ErbB2 (Homo sapiens, UniProt P04626); experiment: Kinase inhibition assay (33P transfer), ErbB2; details: read-out: ErbB2-2
T7 construct: Kinases are expressed as either kinase domains or full length constructs; made in house
Method in brief: as §1

T5 sequence (P35968 20-1356, species assumed): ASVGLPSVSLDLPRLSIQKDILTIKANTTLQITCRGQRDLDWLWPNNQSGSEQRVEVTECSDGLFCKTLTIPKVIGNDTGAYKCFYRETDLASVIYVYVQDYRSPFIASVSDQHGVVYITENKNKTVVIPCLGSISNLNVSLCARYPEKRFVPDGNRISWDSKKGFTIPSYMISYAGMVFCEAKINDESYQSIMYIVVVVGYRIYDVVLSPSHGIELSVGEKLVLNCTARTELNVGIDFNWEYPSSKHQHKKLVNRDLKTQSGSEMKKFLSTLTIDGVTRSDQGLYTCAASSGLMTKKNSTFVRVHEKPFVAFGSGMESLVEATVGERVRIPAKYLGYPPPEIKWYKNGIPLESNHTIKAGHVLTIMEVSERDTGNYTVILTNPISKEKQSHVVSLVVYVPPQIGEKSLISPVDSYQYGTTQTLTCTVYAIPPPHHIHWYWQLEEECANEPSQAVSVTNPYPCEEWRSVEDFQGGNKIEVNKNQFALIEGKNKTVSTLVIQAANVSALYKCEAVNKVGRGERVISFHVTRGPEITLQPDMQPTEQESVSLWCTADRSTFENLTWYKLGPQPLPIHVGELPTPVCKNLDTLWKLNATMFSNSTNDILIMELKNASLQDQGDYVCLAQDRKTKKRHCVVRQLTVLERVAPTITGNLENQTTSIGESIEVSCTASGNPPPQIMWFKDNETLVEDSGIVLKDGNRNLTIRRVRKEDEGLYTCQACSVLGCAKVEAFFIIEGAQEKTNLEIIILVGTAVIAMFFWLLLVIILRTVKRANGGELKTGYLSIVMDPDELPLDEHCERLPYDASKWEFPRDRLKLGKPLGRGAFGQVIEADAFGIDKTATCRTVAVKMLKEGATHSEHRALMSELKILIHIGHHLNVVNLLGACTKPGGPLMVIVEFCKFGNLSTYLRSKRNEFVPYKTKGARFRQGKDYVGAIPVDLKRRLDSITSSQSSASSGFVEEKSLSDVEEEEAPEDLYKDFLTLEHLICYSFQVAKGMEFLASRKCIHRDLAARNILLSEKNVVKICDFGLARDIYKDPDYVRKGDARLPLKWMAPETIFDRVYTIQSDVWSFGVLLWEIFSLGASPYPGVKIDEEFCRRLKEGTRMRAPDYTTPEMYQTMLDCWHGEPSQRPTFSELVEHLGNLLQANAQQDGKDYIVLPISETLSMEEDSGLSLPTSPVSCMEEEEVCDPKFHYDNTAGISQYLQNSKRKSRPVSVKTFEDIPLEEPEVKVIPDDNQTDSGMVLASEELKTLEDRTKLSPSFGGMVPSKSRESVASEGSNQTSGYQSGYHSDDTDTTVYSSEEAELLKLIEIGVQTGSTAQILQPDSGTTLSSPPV
T2 sequence (P09619 33-1106, species assumed): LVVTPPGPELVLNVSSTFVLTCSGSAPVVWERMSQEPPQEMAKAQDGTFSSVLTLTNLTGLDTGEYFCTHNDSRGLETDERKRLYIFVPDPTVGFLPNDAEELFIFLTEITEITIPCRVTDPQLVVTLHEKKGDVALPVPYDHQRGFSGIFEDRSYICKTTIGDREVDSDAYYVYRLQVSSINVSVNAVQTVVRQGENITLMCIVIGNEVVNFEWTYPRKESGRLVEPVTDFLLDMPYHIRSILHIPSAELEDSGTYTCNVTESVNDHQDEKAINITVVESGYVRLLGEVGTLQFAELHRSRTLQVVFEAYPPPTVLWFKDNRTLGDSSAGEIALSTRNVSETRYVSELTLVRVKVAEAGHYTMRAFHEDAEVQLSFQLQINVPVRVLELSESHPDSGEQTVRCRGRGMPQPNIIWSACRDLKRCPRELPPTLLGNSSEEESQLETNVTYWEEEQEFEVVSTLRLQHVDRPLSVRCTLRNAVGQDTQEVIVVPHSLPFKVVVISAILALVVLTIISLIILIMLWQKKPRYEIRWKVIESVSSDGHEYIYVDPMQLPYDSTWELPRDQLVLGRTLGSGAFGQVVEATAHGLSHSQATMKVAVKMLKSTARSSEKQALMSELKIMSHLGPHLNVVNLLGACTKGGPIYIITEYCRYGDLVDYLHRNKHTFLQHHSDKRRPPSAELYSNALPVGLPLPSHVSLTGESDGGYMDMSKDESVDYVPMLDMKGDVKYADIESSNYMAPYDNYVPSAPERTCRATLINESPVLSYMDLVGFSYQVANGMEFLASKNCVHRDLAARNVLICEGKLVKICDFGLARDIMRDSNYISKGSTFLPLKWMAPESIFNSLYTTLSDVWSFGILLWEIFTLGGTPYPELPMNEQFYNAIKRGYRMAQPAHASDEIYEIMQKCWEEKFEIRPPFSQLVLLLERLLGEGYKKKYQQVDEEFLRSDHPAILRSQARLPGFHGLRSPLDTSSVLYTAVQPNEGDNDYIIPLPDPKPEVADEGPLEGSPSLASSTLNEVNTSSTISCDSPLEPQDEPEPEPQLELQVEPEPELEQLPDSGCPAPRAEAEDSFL
T1 sequence (P08631 whole entry, the tested form may be a part): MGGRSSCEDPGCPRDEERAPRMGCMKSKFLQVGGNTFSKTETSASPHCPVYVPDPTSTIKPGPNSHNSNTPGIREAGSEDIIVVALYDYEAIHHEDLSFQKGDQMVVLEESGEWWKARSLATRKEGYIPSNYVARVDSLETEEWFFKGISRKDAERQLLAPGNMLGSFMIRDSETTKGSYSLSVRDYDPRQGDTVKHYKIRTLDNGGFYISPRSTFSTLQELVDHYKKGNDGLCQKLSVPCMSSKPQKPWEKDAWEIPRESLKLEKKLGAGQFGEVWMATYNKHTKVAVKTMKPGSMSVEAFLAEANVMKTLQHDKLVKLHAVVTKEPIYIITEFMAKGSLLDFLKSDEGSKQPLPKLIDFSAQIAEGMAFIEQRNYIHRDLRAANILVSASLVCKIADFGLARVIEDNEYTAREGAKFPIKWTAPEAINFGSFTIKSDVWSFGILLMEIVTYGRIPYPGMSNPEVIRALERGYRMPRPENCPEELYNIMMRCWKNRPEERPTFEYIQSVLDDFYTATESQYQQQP
T6 sequence (P12931 whole entry, species assumed, the tested form may be a part): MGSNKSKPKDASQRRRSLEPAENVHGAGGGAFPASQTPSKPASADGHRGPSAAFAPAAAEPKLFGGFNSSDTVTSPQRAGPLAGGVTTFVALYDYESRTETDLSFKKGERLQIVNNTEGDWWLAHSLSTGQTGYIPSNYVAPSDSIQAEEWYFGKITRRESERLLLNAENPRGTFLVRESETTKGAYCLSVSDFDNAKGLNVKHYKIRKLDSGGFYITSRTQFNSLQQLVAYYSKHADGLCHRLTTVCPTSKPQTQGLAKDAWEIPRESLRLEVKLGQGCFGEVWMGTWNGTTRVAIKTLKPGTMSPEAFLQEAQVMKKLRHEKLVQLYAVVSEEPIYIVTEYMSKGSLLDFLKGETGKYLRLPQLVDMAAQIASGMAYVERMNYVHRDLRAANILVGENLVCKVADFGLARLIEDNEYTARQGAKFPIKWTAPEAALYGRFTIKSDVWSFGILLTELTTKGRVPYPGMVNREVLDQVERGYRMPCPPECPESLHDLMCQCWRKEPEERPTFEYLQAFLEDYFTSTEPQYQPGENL
T7 sequence (P04626 23-1255, species assumed): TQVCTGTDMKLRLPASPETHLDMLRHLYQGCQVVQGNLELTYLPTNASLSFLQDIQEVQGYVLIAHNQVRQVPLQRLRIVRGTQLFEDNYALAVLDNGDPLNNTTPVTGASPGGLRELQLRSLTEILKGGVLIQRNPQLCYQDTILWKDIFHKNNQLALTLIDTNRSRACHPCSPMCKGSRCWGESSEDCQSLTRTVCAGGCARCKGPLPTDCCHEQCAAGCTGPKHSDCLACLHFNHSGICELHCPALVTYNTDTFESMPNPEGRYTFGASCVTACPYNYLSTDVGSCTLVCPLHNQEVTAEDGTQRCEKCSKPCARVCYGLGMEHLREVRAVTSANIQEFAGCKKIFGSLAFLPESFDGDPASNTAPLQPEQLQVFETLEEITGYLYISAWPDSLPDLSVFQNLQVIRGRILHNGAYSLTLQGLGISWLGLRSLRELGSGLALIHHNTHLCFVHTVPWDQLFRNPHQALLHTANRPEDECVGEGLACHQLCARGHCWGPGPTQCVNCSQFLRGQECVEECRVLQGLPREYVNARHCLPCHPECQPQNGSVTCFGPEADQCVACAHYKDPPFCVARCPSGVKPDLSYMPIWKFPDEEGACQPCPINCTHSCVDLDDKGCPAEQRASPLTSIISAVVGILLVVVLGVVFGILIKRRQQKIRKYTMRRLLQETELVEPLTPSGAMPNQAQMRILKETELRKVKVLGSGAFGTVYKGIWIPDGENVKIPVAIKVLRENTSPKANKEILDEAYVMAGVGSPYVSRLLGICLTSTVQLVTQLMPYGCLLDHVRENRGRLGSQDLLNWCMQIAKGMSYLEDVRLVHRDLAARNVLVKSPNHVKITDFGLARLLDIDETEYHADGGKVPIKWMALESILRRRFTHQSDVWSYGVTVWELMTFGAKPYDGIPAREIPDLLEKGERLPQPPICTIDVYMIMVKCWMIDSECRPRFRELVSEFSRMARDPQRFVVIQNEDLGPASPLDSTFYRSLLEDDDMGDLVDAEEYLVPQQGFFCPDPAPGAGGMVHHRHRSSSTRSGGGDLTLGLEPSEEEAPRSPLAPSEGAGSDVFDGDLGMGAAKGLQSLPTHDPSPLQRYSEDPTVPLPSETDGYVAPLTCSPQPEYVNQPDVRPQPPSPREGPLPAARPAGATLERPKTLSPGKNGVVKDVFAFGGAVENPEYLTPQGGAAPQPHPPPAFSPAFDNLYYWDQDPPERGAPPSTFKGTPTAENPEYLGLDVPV

COCCOc1ccc(Nc2ncnc(Nc3ccc(C)c(O)c3)n2)cc1OC [Compound 123]
IC50 (Hck-1): 6.04 to 8.81 µM | IC50 (PDGFRB): < 1.01 µM | IC50 (Itk): 6.04 to 8.81 µM | IC50 (Zap-70): > 11.3 µM | IC50 (Kdr): < 1.01 µM | IC50 (Src): < 1.01 µM

COc1ccc(Nc2ncnc(N(C/C=C/c3ccccc3)c3ccc(Cl)cc3)n2)cc1OC [Compound 974]
IC50 (Hck-1): > 9.49 µM | IC50 (PDGFRB): > 9.49 µM | IC50 (Itk): > 9.49 µM | IC50 (Zap-70): > 9.49 µM | IC50 (Kdr): 0.844 to 5.06 µM | IC50 (Src): > 9.49 µM

NC(=O)c1cccc(Nc2ncnc(Nc3cc(-c4ccco4)n[nH]3)n2)c1 [Compound 342]
IC50 (Hck-1): 6.62 to 9.66 µM | IC50 (PDGFRB): 1.1 to 6.62 µM | IC50 (Itk): 1.1 to 6.62 µM | IC50 (Zap-70): > 12.4 µM | IC50 (Kdr): < 1.1 µM | IC50 (Src): > 12.4 µM

c1coc(-c2cc(Nc3ncnc(Nc4ccc(N5CCOCC5)cc4)n3)[nH]n2)c1 [Compound 340]
IC50 (Hck-1): > 11.1 µM | IC50 (PDGFRB): 8.65 to 11.1 µM | IC50 (Itk): > 11.1 µM | IC50 (Zap-70): > 11.1 µM | IC50 (Kdr): < 0.989 µM | IC50 (Src): > 11.1 µM

COc1ccc(Nc2ncnc(N(CC(=O)O)c3ccc4c(c3)OCO4)n2)cc1OC [Compound 320]
IC50 (Hck-1): > 10.6 µM | IC50 (PDGFRB): > 10.6 µM | IC50 (Itk): > 10.6 µM | IC50 (Zap-70): 8.23 to 10.6 µM | IC50 (Kdr): 5.64 to 8.23 µM | IC50 (Src): > 10.6 µM

COc1cc(Nc2ncnc(Nc3ccc(C)cc3F)n2)cc(OC)c1OC [Compound 937]
IC50 (Hck-1): > 11.7 µM | IC50 (PDGFRB): < 1.04 µM | IC50 (Itk): > 11.7 µM | IC50 (Zap-70): > 11.7 µM | IC50 (Kdr): < 1.04 µM | IC50 (Src): 1.04 to 6.23 µM

COc1cc(Nc2ncnc(-n3ccc4cc(OCc5ccccc5)ccc43)n2)cc(OC)c1OC [Compound 200]
IC50 (Hck-1): > 9.31 µM | IC50 (PDGFRB): 0.827 to 4.96 µM | IC50 (Itk): > 9.31 µM | IC50 (Zap-70): > 9.31 µM | IC50 (Kdr): 4.96 to 7.24 µM | IC50 (Src): > 9.31 µM

COc1cc(Nc2ncnc(-n3cc(C)c4ccccc43)n2)cc(OC)c1OC [Compound 323]
IC50 (Hck-1): > 11.5 µM | IC50 (PDGFRB): < 1.02 µM | IC50 (Itk): > 11.5 µM | IC50 (Zap-70): 8.94 to 11.5 µM | IC50 (Kdr): < 1.02 µM | IC50 (Src): > 11.5 µM

COc1cc(Nc2ncnc(N3CCCC4CCCCC43)n2)cc(OC)c1OC (stereo not drawn) [Compound 314]
IC50 (Hck-1): 6.01 to 8.76 µM | IC50 (PDGFRB): 1 to 6.01 µM | IC50 (Itk): 1 to 6.01 µM | IC50 (Zap-70): > 11.3 µM | IC50 (Kdr): < 1 µM | IC50 (Src): 1 to 6.01 µM

COc1cc(Nc2ncnc(-n3c(NC(C)=O)nc4ccccc43)n2)cc(OC)c1OC [Compound 334]
IC50 (Hck-1): > 10.3 µM | IC50 (PDGFRB): 0.919 to 5.51 µM | IC50 (Itk): 0.919 to 5.51 µM | IC50 (Zap-70): > 10.3 µM | IC50 (Kdr): 0.919 to 5.51 µM | IC50 (Src): > 10.3 µM

COc1cc(Nc2ncnc(N3CCCCC3)n2)cc(OC)c1OC [Compound 207]
IC50 (PDGFRB): > 13 µM | IC50 (Itk): > 13 µM | IC50 (Zap-70): > 13 µM | IC50 (Kdr): 1.16 to 6.95 µM

COc1ccc(Nc2ncnc(Nc3ccc(N(C)C)cc3)n2)cc1OC [Compound 114]
IC50 (PDGFRB): > 12.3 µM | IC50 (Itk): > 12.3 µM | IC50 (Zap-70): > 12.3 µM | IC50 (Kdr): < 1.09 µM

COc1cc(Nc2ncnc(-n3c(Nc4ccccc4)nc4ccccc43)n2)cc(OC)c1OC [Compound 336]
IC50 (Hck-1): > 9.58 µM | IC50 (PDGFRB): < 0.852 µM | IC50 (Itk): > 9.58 µM | IC50 (Zap-70): > 9.58 µM | IC50 (Src): > 9.58 µM

Cc1cccc(Nc2ncnc(Nc3cccc(Br)c3)n2)c1 [Compound 109]
IC50 (PDGFRB): > 12.6 µM | IC50 (Itk): > 12.6 µM | IC50 (ErbB2): 6.74 to 9.83 µM | IC50 (Zap-70): 6.74 to 9.83 µM | IC50 (Kdr): 6.74 to 9.83 µM

COc1ccc(N(C)c2ncnc(Nc3cc(OC)c(OC)c(OC)c3)n2)cc1 [Compound 106]
IC50 (PDGFRB): < 1.01 µM | IC50 (Itk): > 11.3 µM | IC50 (Zap-70): > 11.3 µM | IC50 (Kdr): < 1.01 µM

COc1ccc(Nc2ncnc(Nc3cc(OC)c(OC)c(OC)c3)n2)cn1 [Compound 28]
Hck-1 (Hck-1): E (E>4.5 ug/mL) | Itk-1 (Itk): E (E>4.5 ug/mL) | Zap-1 (Zap-70): E (E>4.5 ug/mL) | KDR-1 (Kdr): A (A<0.4 ug/mL) | Src-1 (Src): B (B>0.4 and <2.4 ug/mL)

COc1cc(Nc2ncnc(Nc3cc(OC)c(OC)c(OC)c3)n2)cc(OC)n1 [Compound 253]
IC50 (Hck-1): > 10.9 µM | IC50 (Itk): > 10.9 µM | IC50 (Zap-70): > 10.9 µM | IC50 (Kdr): 0.965 to 5.79 µM | IC50 (Src): < 0.965 µM

COc1ccc(Nc2ncnc(Nc3ccc(Oc4ccccc4)cc3)n2)cc1OC [Compound 929]
IC50 (PDGFRB): > 10.8 µM | IC50 (Itk): 0.963 to 5.78 µM | IC50 (Zap-70): 5.78 to 8.42 µM | IC50 (Kdr): 0.963 to 5.78 µM
